Test results published in patent publication US20190192427A1, “AZOLE COMPOUND OPHTHALMIC PREPARATION” (BIOTOOL, LLC, priority 2016, published 2019).

What was measured:
nuclear cataract = assay: Rat sodium selenite (senile/nuclear) cataract model, eye drops, lens opacity phase by slit lamp; assay type: in vivo, Wistar rats; conditions: 10 suffering eyes per group, about 20 μL three times a day, 10 weeks
Method: (§1) Rat model of cataract was made: Wistar rats 12 days after birth were selected, male or female, modeled with sodium selenite (senile cataract), each rat was injected subcutaneously in the back neck according to 20 umol/kg body weight. Acupuncture was used to model adult rats (traumatic cataract).
(§2) The opacity of the lens was observed using a slit lamp, and the lens opacity is generally classified into phase 0-V.
(§3) phase 0—Lens are transparent;
(§4) phase I—The cortex around the lens is scattered in small vacuoles;
(§5) phase II—The cortex around the lens is in ring-shaped dense medium vacuoles;
(§6) phase III—Other parts of cortex are in flaky turbidity;
(§7) phase IV—Lens nucleus and perinuclear cortex are turbid;
(§8) phase V—The lens is completely turbid.
(§9) After 3 days of modeling, econazole eye drops were administered three times a day including morning, noon, and evening, at intervals of at least 5 hours. Every group was made up of 10 cases of cataract suffering eyes involved in the test. The mode of administration was directly dropping to the eye to ensure that the drug was completely dripped into the eye. Each case of suffering eye receiving treatment was administrated one drop at a time with an amount of about 20 μL, and was continuously administrated for 10 weeks. All cataract suffering eyes in different treatment groups were observed and judged for signs of symptom ease or symptom relief.

traumatic cataract = assay: Rat acupuncture (traumatic) cataract model, eye drops, lens opacity phase by slit lamp; assay type: in vivo, rats; conditions: 10 suffering eyes per group, about 20 μL three times a day, 10 weeks
Method: as §1, §2, §3, §4, §5, §6, §7, §8, §9

[1] = Tolerance of eye drops in cataract rats during treatment; assay type: in vivo, rat; conditions: eye drops three times a day, 10 weeks
Method: as §9

Clc1ccc(COC(Cn2ccnc2)c2ccc(Cl)cc2Cl)cc1 (stereo not shown) [econazole, Econazole]
number of eyes in phase 0 (nuclear cataract): 6
number of eyes in phase I (nuclear cataract): 0
number of eyes in phase II (nuclear cataract): 0
number of eyes in phase III (nuclear cataract): 0
number of eyes in phase IV (nuclear cataract): 4
number of eyes in phase V (nuclear cataract): 0
number of eyes in phase 0 (traumatic cataract): 4
number of eyes in phase I (traumatic cataract): 5
number of eyes in phase II (traumatic cataract): 1
number of eyes in phase III (traumatic cataract): 0
number of eyes in phase IV (traumatic cataract): 0
number of eyes in phase V (traumatic cataract): 0
discomfort or ocular allergic reaction throughout the treatment [1]: No rat has discomfort or ocular allergic reaction
